Measured values as given in patent US11826399B2, “Chlorotoxin agents and uses thereof” (Eisai Inc., priority 2017, dated 2023).
Values joined by “and” are separate entries in the source; they are usually repeats but may differ in a detail not shown here. Identical values can stand only once.

How the values were obtained:
[1] = Plasma and tissue distribution of Cryptophycin Payload and Cryptophycin Metabolite 1 after Cryptophycin Payload alone or with CTX in PC-3 xenograft nude mice (LC-MS/MS); type: in vivo, mouse
Description: For the present experiment, materials, methods, drugs and model were as described in Example 21. […] Following intravenous administration, whole blood samples were collected at predetermined time points via cardiac puncture (n=3 mice per time point). Blood samples were centrifuged to obtain plasma and subsequently stored at […] or lower pending analysis. Additionally, at each time point, kidney, liver, small intestine, brain, heart, and tumor were harvested by removing entire specimen from surrounding tissues (only a portion of liver and small intestine were removed). After removal, tissues were rinsed with normal saline solution (contents of small intestine were emptied) and blotted dry with clean adsorptive tissue. Once dried, the specimens were weighed and stored at −20° C. or lower pending analysis. […] Pharmacokinetic (PK) parameters were calculated. Mean plasma and tissue concentrations were used to calculate mean PK parameters. Skin and skeletal muscle which were not assessed due to difficulty of homogenization.
Vehicle for single dose group was 10% ethanol, 5% Tween 80, 85% saline. Vehicle for combination treatment was 5% ethanol, 2.5% Tween 80, 92.5% saline.

[2] = system: PC-3 human prostate cancer cells; assay: Co-administration of Cryptophycin Payload with CTX or iRGD in subcutaneous PC-3 xenograft model; type: in vivo, mouse; settings: Cryptophycin Payload alone at 0.4 mg/kg IV
Description: PC-3 human prostate cancer cells (ATCC CRL-1435) were grown in RPMI-1640 medium supplemented with 10% FBS. For inoculation, 2×10^6 PC-3 cancer cells were injected subcutaneously into mice near the right axillary area using a 27-gauge needle in a volume of 0.1 mL. Mice were immune-compromised NU/NU nude females, approximately 6 weeks old from Charles River Labs. Tumors were measured at least twice weekly using calipers and mice were randomized into treatment groups based on tumor size when the average tumor reached approximately 180 mm^3. All treatments were initiated 17 days after tumor inoculation. The experiment included a vehicle-treated group and drug-treated groups (n=5). […]
General health of the mice was monitored and mortality recorded daily. Tumor volume was assessed by caliper (Mitutoyo, Aurora, IL) measurements (mm) using the formula (1×w^2)/2=mm^3, where 1 and w refer to the larger and smaller perpendicular dimensions collected at each measurement. Tumor dimensions were recorded twice per week starting at the initiation of drug treatment. Body weights were recorded twice per week starting on the first day of treatment. Relative body weight was calculated as follows: Relative body weight=(body weight on day of measurement/body weight on first day of treatment). […] The mean±SEM for tumor volume and mean±SEM for relative body weight for each experimental group was calculated. […]

[3] = Payload 0.4 mg/kg + CTX 16 mg/kg IV, 24 h
[4] = Payload 0.4 mg/kg IV alone, 0.083 h
[5] = Payload 0.4 mg/kg IV alone, 0.5 h
[6] = Payload 0.4 mg/kg IV alone, 1 h
[7] = Payload 0.4 mg/kg IV alone, 2 h
[8] = Payload 0.4 mg/kg IV alone, 6 h
[9] = Payload 0.4 mg/kg IV alone, 24 h
[10] = Plasma, Payload 0.4 mg/kg + CTX 16 mg/kg IV
[11] = Plasma, Payload 0.4 mg/kg IV alone
[12] = Small Intestine, Payload 0.4 mg/kg + CTX 16 mg/kg IV
[13] = Small Intestine, Payload 0.4 mg/kg IV alone
[14] = Tumor, Payload 0.4 mg/kg + CTX 16 mg/kg IV
[15] = Tumor, Payload 0.4 mg/kg IV alone

**Q.** For `CCCCNC(=O)Cc1ccccc1SSC(C)(C)CCN1CCN(Cc2ccc(C3OC3C(C)C3CC=CC(=O)NC(Cc4ccc(OC)c(Cl)c4)C(=O)NCC(C)(C)C(=O)NC(CC(C)C)C(=O)O3)cc2)CC1` (stereo not shown) [Cryptophycin Payload], which “Concentration of Cryptophycin Payload, Liver, Mean” value (“Concentration … Liver, Mean” for short) [1, 3] is on record?
**A.** BLQ

**Q.** What about the “Concentration of Cryptophycin Payload, Plasma, Mean” value (from here on “Concentration … Plasma, Mean”) [1, 3] of the same compound?
**A.** BLQ

**Q.** What about the “Concentration of Cryptophycin Payload, Small Intestine, Mean” value (shortened to “Concentration … Small Intestine, Mean”) [1, 3] of the same compound?
**A.** BLQ

**Q.** What about the “Concentration of Cryptophycin Payload, Tumor, Mean” value (“Concentration … Tumor, Mean” for short) [1, 3] of the same compound?
**A.** BLQ

**Q.** What about the “Concentration of Cryptophycin Payload, Brain, Mean” value (from here on “Concentration … Brain, Mean”) [1, 4] of the same compound?
**A.** 8.32 ng/g

**Q.** What about the “Concentration of Cryptophycin Payload, Heart, Mean” value (from here on “Concentration … Heart, Mean”) [1, 4] of the same compound?
**A.** 63.2 ng/g

**Q.** And the “Concentration of Cryptophycin Payload, Kidney, Mean” value (from here on “Concentration … Kidney, Mean”) [1, 4]?
**A.** 533 ng/g

**Q.** What about the “Concentration … Liver, Mean” value [1, 4] of the same compound?
**A.** 6.02 ng/g

**Q.** And the “Concentration … Plasma, Mean” value [1, 4]?
**A.** 493 ng/mL

**Q.** And the “Concentration … Small Intestine, Mean” value [1, 4]?
**A.** 53.3 ng/g

**Q.** What about the “Concentration … Tumor, Mean” value [1, 4] of the same compound?
**A.** 11.6 ng/g

**Q.** What about the “Concentration … Brain, Mean” value [1, 5] of the same compound?
**A.** 1.42 ng/g

**Q.** And the “Concentration … Heart, Mean” value [1, 5]?
**A.** 18.9 ng/g

**Q.** And the “Concentration … Kidney, Mean” value [1, 5]?
**A.** 320 ng/g

**Q.** And the “Concentration … Liver, Mean” value [1, 5]?
**A.** 1.92 ng/g

**Q.** What about the “Concentration … Plasma, Mean” value [1, 5] of the same compound?
**A.** 36.3 ng/mL

**Q.** What about the “Concentration … Small Intestine, Mean” value [1, 5] of the same compound?
**A.** 13.6 ng/g

**Q.** And the “Concentration … Tumor, Mean” value [1, 5]?
**A.** 4.11 ng/g

**Q.** And the “Concentration … Brain, Mean” value [1, 6]?
**A.** 0.673 ng/g

**Q.** And the “Concentration … Heart, Mean” value [1, 6]?
**A.** 7.91 ng/g

**Q.** What about the “Concentration … Kidney, Mean” value [1, 6] of the same compound?
**A.** 158 ng/g

**Q.** What about the “Concentration … Liver, Mean” value [1, 6] of the same compound?
**A.** 3.32 ng/g

**Q.** What about the “Concentration … Plasma, Mean” value [1, 6] of the same compound?
**A.** 11.0 ng/mL

**Q.** And the “Concentration … Small Intestine, Mean” value [1, 6]?
**A.** 6.55 ng/g

**Q.** What about the “Concentration … Tumor, Mean” value [1, 6] of the same compound?
**A.** 2.14 ng/g

**Q.** What about the “Concentration … Brain, Mean” value [1, 7] of the same compound?
**A.** 0.436 ng/g

**Q.** What about the “Concentration … Heart, Mean” value [1, 7] of the same compound?
**A.** 3.28 ng/g

**Q.** And the “Concentration … Kidney, Mean” value [1, 7]?
**A.** 93.8 ng/g

**Q.** And the “Concentration … Liver, Mean” value [1, 7]?
**A.** 1.29 ng/g

**Q.** And the “Concentration … Plasma, Mean” value [1, 7]?
**A.** 5.30 ng/mL

**Q.** And the “Concentration … Small Intestine, Mean” value [1, 7]?
**A.** 6.41 ng/g

**Q.** What about the “Concentration … Tumor, Mean” value [1, 7] of the same compound?
**A.** 2.41 ng/g

**Q.** What about the “Concentration … Brain, Mean” value [1, 8] of the same compound?
**A.** BLQ

**Q.** What about the “Concentration … Heart, Mean” value [1, 8] of the same compound?
**A.** 0.885 ng/g

**Q.** What about the “Concentration … Kidney, Mean” value [1, 8] of the same compound?
**A.** 20.4 ng/g

**Q.** And the “Concentration … Liver, Mean” value [1, 8]?
**A.** 0.948 ng/g

**Q.** And the “Concentration … Plasma, Mean” value [1, 8]?
**A.** 0.492 ng/mL

**Q.** And the “Concentration … Small Intestine, Mean” value [1, 8]?
**A.** 2.17 ng/g

**Q.** And the “Concentration … Tumor, Mean” value [1, 8]?
**A.** 1.03 ng/g

**Q.** What about the “Concentration … Brain, Mean” value [1, 9] of the same compound?
**A.** BLQ

**Q.** And the “Concentration … Heart, Mean” value [1, 9]?
**A.** BLQ

**Q.** What about the “Concentration … Kidney, Mean” value [1, 9] of the same compound?
**A.** 3.79 ng/g

**Q.** And the “Concentration … Liver, Mean” value [1, 9]?
**A.** BLQ

**Q.** And the “Concentration … Plasma, Mean” value [1, 9]?
**A.** BLQ

**Q.** And the “Concentration … Small Intestine, Mean” value [1, 9]?
**A.** 2.31 ng/g

**Q.** And the “Concentration … Tumor, Mean” value [1, 9]?
**A.** 0.335 ng/g

**Q.** And the “AUC(0-inf) of Cryptophycin Payload” value [1, 10]?
**A.** 129 ng·h/mL

**Q.** And the “AUC(0-t) of Cryptophycin Payload” value [1, 10]?
**A.** 128 ng·h/mL

**Q.** What about the “CL of Cryptophycin Payload” value [1, 10] of the same compound?
**A.** 51.8 mL/min/kg

**Q.** And the “Vss of Cryptophycin Payload” value [1, 10]?
**A.** 2.28 L/kg

**Q.** And the “t1/2 of Cryptophycin Payload” value [1, 10]?
**A.** 50.9 min

**Q.** What about the “AUC(0-inf) of Cryptophycin Payload” value [1, 11] of the same compound?
**A.** 154 ng·h/mL

**Q.** What about the “AUC(0-t) of Cryptophycin Payload” value [1, 11] of the same compound?
**A.** 153 ng·h/mL

**Q.** And the “CL of Cryptophycin Payload” value [1, 11]?
**A.** 43.3 mL/min/kg

**Q.** And the “Vss of Cryptophycin Payload” value [1, 11]?
**A.** 1.15 L/kg

**Q.** What about the “t1/2 of Cryptophycin Payload” value [1, 11] of the same compound?
**A.** 67.8 min

**Q.** What about the “AUC(0-inf) of Cryptophycin Payload” value [1, 12] of the same compound?
**A.** 36.4 ng·h/g

**Q.** And the “AUC(0-t) of Cryptophycin Payload” value [1, 12]?
**A.** 34.9 ng·h/g

**Q.** What about the “t1/2 of Cryptophycin Payload” value [1, 12] of the same compound?
**A.** 76.2 min

**Q.** And the “tmax of Cryptophycin Payload” value [1, 12]?
**A.** 4.8 min

**Q.** What about the “TPI of Cryptophycin Payload” value ([1]; Small Intestine, Payload 0.4 mg/kg + CTX 16 mg/kg IV, AUC0-inf tissue/AUC0-inf plasma) of the same compound?
**A.** 0.282 mL/g

**Q.** What about the “AUC(0-t) of Cryptophycin Payload” value [1, 13] of the same compound?
**A.** 81.6 ng·h/g

**Q.** What about the “tmax of Cryptophycin Payload” value [1, 13] of the same compound?
**A.** 4.98 min and 4.8 min

**Q.** And the “TPI of Cryptophycin Payload” value ([1]; Small Intestine, Payload 0.4 mg/kg IV alone, AUC0-6 h tissue/AUC0-6 h plasma)?
**A.** 0.268 mL/g and 0.268^c mL/g

**Q.** And the “AUC(0-t) of Cryptophycin Payload” value [1, 14]?
**A.** 42.7 ng·h/g

**Q.** And the “tmax of Cryptophycin Payload” value [1, 14]?
**A.** 4.8 min

**Q.** What about the “TPI of Cryptophycin Payload” value ([1]; Tumor, Payload 0.4 mg/kg + CTX 16 mg/kg IV, AUC0-6 h tissue/AUC0-6 h plasma) of the same compound?
**A.** 0.334 mL/g and 0.334^c mL/g

**Q.** What about the “AUC(0-inf) of Cryptophycin Payload” value [1, 15] of the same compound?
**A.** 28.8 ng·h/g

**Q.** What about the “AUC(0-t) of Cryptophycin Payload” value [1, 15] of the same compound?
**A.** 24.9 ng·h/g

**Q.** And the “t1/2 of Cryptophycin Payload” value [1, 15]?
**A.** 506 min

**Q.** And the “tmax of Cryptophycin Payload” value [1, 15]?
**A.** 4.98 min and 4.8 min

**Q.** And the “TPI of Cryptophycin Payload” value ([1]; Tumor, Payload 0.4 mg/kg IV alone, AUC0-inf tissue/AUC0-inf plasma)?
**A.** 0.187 mL/g

**Q.** What about the “Antitumor activity (tumor volume)” value [2] of the same compound?
**A.** significant antitumor activity
